Results as given in patent US9150566B2, “2-(1,2,3-triazol-2-yl)benzamide and 3-(1,2,3-triazol-2-YL)picolinamide derivatives as orexin receptor antagonists” (ACTELION PHARMACEUTICALS LTD., priority 2011, dated 2015).
Read-outs that look alike come from different tables or passages of the source.

Tests used:
human orexin-1 receptor = human orexin-1 receptor (Homo sapiens (Human), UniProt O43613); test: In vitro intracellular calcium measurements (FLIPR), antagonistic activity on orexin-1 receptor; type: cell-based; settings: read-out: IC50 OX1
human orexin-1 receptor, sequence (O43613 whole entry): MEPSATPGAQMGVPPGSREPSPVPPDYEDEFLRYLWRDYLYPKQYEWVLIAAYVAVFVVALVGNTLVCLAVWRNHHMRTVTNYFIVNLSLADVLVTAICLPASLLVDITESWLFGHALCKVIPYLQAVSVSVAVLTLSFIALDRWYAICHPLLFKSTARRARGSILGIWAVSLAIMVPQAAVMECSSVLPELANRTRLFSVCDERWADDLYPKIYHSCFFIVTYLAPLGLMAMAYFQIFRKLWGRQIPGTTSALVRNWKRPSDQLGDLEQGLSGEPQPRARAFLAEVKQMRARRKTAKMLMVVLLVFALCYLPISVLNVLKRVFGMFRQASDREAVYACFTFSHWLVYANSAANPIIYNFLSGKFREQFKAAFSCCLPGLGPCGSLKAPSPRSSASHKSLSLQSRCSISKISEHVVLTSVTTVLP
Outline: (§1)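 Recombinant CHO lines bearing human OX1 or OX2 receptors received test antagonist 120 min before agonist addition.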

human orexin-2 receptor = human orexin-2 receptor (Homo sapiens (Human), UniProt O43614); test: In vitro intracellular calcium measurements (FLIPR), antagonistic activity on orexin-2 receptor; type: cell-based; settings: CHO cells expressing human orexin-2 receptor; FLIPR; 3 nM orexin-A agonist; 120 min antagonist incubation; geometric mean if determined several times; read-out: IC50 OX2
human orexin-2 receptor, sequence (O43614 whole entry): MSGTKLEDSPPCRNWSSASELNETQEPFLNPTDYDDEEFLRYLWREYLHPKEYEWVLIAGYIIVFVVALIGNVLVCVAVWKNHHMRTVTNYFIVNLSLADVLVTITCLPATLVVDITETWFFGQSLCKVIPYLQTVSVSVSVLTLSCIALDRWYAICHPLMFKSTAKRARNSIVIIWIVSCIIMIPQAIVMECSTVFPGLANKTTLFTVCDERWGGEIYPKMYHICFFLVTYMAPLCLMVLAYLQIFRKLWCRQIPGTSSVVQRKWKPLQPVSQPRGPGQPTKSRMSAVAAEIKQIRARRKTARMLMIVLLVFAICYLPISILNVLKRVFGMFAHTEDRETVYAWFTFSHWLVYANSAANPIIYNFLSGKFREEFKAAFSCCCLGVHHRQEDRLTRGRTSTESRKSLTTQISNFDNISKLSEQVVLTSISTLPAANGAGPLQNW
Outline: as §1

CYP3A4 = CYP3A4 (Homo sapiens (Human), UniProt P08684); test: CYP3A4 inhibition assay (human liver microsomes, testosterone 6β-hydroxylation); settings: read-out: CYP3A4 IC50, 40 μM testosterone
CYP3A4, sequence (P08684 whole entry): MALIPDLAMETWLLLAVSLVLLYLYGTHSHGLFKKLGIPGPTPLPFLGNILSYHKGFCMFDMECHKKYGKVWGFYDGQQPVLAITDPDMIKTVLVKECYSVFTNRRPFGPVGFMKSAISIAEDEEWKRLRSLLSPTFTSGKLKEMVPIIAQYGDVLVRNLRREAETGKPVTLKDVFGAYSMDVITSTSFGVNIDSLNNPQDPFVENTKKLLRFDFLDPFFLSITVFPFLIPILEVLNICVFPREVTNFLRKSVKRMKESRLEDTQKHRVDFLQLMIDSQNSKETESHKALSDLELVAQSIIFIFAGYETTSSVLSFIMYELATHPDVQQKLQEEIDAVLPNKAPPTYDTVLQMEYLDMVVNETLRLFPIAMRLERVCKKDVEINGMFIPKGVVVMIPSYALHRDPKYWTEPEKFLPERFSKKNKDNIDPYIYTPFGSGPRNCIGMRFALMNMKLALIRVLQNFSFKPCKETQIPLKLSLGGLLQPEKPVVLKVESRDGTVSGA
Protocol: The CYP3A4 inhibition assay was performed using human liver microsomes and testosterone 6β-hydroxylation as a P450 isoform-specific marker. In a total volume of 150 μL, ^14C-testosterone at a final concentration of 40 μM in a 100 mM phosphate buffer (pH 7.4) was incubated in a 96-well plate with 0.3 mg/mL of human liver microsomes in an Eppendorf thermomixer at 37° C. and 400 rpm. […] The reaction was initiated by addition of 15 μL of the NADPH-regenerating system containing the glucose-6-phosphate dehydrogenase and terminated after 7 min with a 75 μL-aliquot of methanol. After centrifugation at 465 g and 4° C. for 20 min, a 50 μL-aliquot of the supernatant was submitted to HPLC according to the method described below. The total concentration of DMSO in the assay including controls without inhibitor was 1%.
Nicardipine was run in parallel as a reference inhibitor of CYP3A4 activity at final concentrations of 0, 0.1, 0.5, 1.0, 5.0, 10, 25, and 50 μM. Stock solutions thereof were prepared in DMSO.
The chromatographic separation of testosterone and 6β-hydroxytestosterone was achieved on a Phenomenex Luna C18(2) column (5 μm, 2.0×10 mm) at RT with a flow rate of 0.6 mL/min. Mobile phases consisted of 1% aqueous formic acid (phase A) and methanol (phase B) using a gradient method with 0.9 min total run time.
The quantification of 6β-hydroxytestosterone was carried out using a quadrupole mass spectrometer equipped with an ionspray interface operating in positive ion mode. The parameters of the mass detector were set as follows: capillary voltage 5 kV, auxiliary gas 40 psi, collision gas 3 mTorr, and transfer capillary temperature 420° C.

[1] = CHO cells expressing human orexin-1 receptor, FLIPR, 3 nM orexin-A agonist, 120 min antagonist incubation, geometric mean if determined several times

IC50 (human orexin-1 receptor; [1]) | IC50 (human orexin-2 receptor) | IC50 (CYP3A4) | SMILES | IC50 (human orexin-1 receptor)
16 nM | 429 nM | 19000 nM | Cc1ccc(C(=O)N2C[C@@H](C)OC[C@H]2Cc2cc(-n3ccnn3)ccc2F)c(-n2nccn2)c1 [Example 141, [(2R,5R)-5-(2-Fluoro-5-[1,2,3]triazol-1-yl-benzyl)-2-methyl-morpholin-4-yl]-(4-methyl-2-[1,2,3]triazol-2-yl-phenyl)-methanone] | 
4 nM | 263 nM | 31000 nM | Cc1ccc(C(=O)N2C[C@@H](C)OC[C@H]2Cc2cc(-c3ncccn3)ccc2F)c(-n2nccn2)c1 [Example 149, [(2R,5R)-5-(2-Fluoro-5-pyrimidin-2-yl-benzyl)-2-methyl-morpholin-4-yl]-(4-methyl-2-[1,2,3]triazol-2-yl-phenyl)-methanone] | 
9 nM | 506 nM | 32000 nM | Cc1cccc(C(=O)N2C[C@@H](C)OC[C@H]2Cc2cc(-c3ncccn3)ccc2F)c1-n1nccn1 [Example 150, [(2R,5R)-5-(2-Fluoro-5-pyrimidin-2-yl-benzyl)-2-methyl-morpholin-4-yl]-(3-methyl-2-[1,2,3]triazol-2-yl-phenyl)-methanone] | 
4 nM | 129 nM | 15000 nM | C[C@@H]1CN(C(=O)c2cc(Cl)ccc2-n2nccn2)[C@H](Cc2cc(-c3ncccn3)ccc2F)CO1 [Example 152, (5-Chloro-2-[1,2,3]triazol-2-yl-phenyl)-[(2R,5R)-5-(2-fluoro-5-pyrimidin-2-yl-benzyl)-2-methyl-morpholin-4-yl]-methanone] | 
13 nM | 447 nM | 24000 nM | C[C@@H]1CN(C(=O)c2cccc(Cl)c2-n2nccn2)[C@H](Cc2cc(-c3ncccn3)ccc2F)CO1 [Example 154, (3-Chloro-2-[1,2,3]triazol-2-yl-phenyl)-[(2R,5R)-5-(2-fluoro-5-pyrimidin-2-yl-benzyl)-2-methyl-morpholin-4-yl]-methanone] | 
6 nM | 490 nM | 17000 nM | O=C(c1cc(Cl)ccc1-n1nccn1)N1CCOC[C@H]1Cc1cc(-c2ncccn2)ccc1F [Example 159, (5-Chloro-2-[1,2,3]triazol-2-yl-phenyl)-[(R)-3-(2-fluoro-5-pyrimidin-2-yl-benzyl)-morpholin-4-yl]-methanone] | 
16 nM | 655 nM | 33000 nM | O=C(c1cccc(Cl)c1-n1nccn1)N1CCOC[C@H]1Cc1cc(-c2ncccn2)ccc1F [Example 161, (3-Chloro-2-[1,2,3]triazol-2-yl-phenyl)-[(R)-3-(2-fluoro-5-pyrimidin-2-yl-benzyl)-morpholin-4-yl]-methanone] | 
14 nM | 1300 nM | 20000 nM | Cc1ccc(C(=O)N2C[C@@H](C)OC[C@H]2Cc2cc(-c3cccnn3)ccc2F)c(-n2nccn2)c1 [Example 165, [(2R,5R)-5-(2-Fluoro-5-pyridazin-3-yl-benzyl)-2-methyl-morpholin-4-yl]-(4-methyl-2-[1,2,3]triazol-2-yl-phenyl)-methanone] | 
3 nM | 93 nM | 23000 nM | C[C@@H]1CN(C(=O)c2cccc(Cl)c2-n2nccn2)[C@H](Cc2cccc(-n3nccn3)c2)CO1 [Example 172, (3-Chloro-2-[1,2,3]triazol-2-yl-phenyl)-[(2R,5R)-2-methyl-5-(3-[1,2,3]triazol-2-yl-benzyl)-morpholin-4-yl]-methanone] | 
16 nM | 455 nM | 21000 nM | C[C@@H]1CN(C(=O)c2cccc(Cl)c2-n2nccn2)[C@H](Cc2cc(-n3nccn3)ccc2F)CO1 [Example 173, (3-Chloro-2-[1,2,3]triazol-2-yl-phenyl)-[(2R,5R)-5-(2-fluoro-5-[1,2,3]triazol-2-yl-benzyl)-2-methyl-morpholin-4-yl]-methanone] | 
2 nM | 165 nM | 24000 nM | O=C(c1ccc(Cl)cc1-n1nccn1)N1CCOC[C@H]1Cc1cc(-c2ncon2)ccc1F [Example 178, (4-Chloro-2-[1,2,3]triazol-2-yl-phenyl)-[(R)-3-(2-fluoro-5-[1,2,4]oxadiazol-3-yl-benzyl)-morpholin-4-yl]-methanone] | 
19 nM | 830 nM | 36000 nM | O=C(c1cccc(Cl)c1-n1nccn1)N1CCOC[C@H]1Cc1cc(-c2ncon2)ccc1F [Example 180, (3-Chloro-2-[1,2,3]triazol-2-yl-phenyl)-[(R)-3-(2-fluoro-5-[1,2,4]oxadiazol-3-yl-benzyl)-morpholin-4-yl]-methanone] | 

The next lines start with the compound.

SMILES | IC50 (human orexin-1 receptor; [1]) | IC50 (human orexin-2 receptor) | IC50 (CYP3A4) | IC50 (human orexin-1 receptor)
COc1cc(C(=O)N2CCOC[C@H]2Cc2cc(-n3nccn3)ccc2F)c(-n2nccn2)cc1Cl [Example 139, (4-Chloro-5-methoxy-2-[1,2,3]triazol-2-yl-phenyl)-[(R)-3-(2-fluoro-5-[1,2,3]triazol-2-yl-benzyl)-morpholin-4-yl]-methanone] | 10 nM | 191 nM | 13000 nM | 
CC[C@@H]1CN(C(=O)c2cc(C)ccc2-n2nccn2)[C@H](Cc2cccc(-n3nccn3)c2)CO1 [Example 142, [(2R,5R)-2-Ethyl-5-(3-[1,2,3]triazol-2-yl-benzyl)-morpholin-4-yl]-(5-methyl-2-[1,2,3]triazol-2-yl-phenyl)-methanone] | 5 nM | 287 nM | 9200 nM | 
CC[C@@H]1CN(C(=O)c2ccccc2-n2nccn2)[C@H](Cc2cccc(-n3nccn3)c2)CO1 [Example 143, [(2R,5R)-2-Ethyl-5-(3-[1,2,3]triazol-2-yl-benzyl)-morpholin-4-yl]-(2-[1,2,3]triazol-2-yl-phenyl)-methanone] | 19 nM | 485 nM | 9100 nM | 
CC[C@@H]1CN(C(=O)c2ccc(C)cc2-n2nccn2)[C@H](Cc2cccc(-n3nccn3)c2)CO1 [Example 144, [(2R,5R)-2-Ethyl-5-(3-[1,2,3]triazol-2-yl-benzyl)-morpholin-4-yl]-(4-methyl-2-[1,2,3]triazol-2-yl-phenyl)-methanone] | 5 nM | 104 nM | 9600 nM | 
O=C(c1ccccc1-n1nccn1)N1CCOC[C@H]1Cc1cc(F)cc(-n2nccn2)c1 [Example 145, [(R)-3-(3-Fluoro-5-[1,2,3]triazol-2-yl-benzyl)-morpholin-4-yl]-(2-[1,2,3]triazol-2-yl-phenyl)-methanone] | 34 nM | 1510 nM | 22000 nM | 
Cc1ccc(C(=O)N2CCOC[C@H]2Cc2cc(F)cc(-n3nccn3)c2)c(-n2nccn2)c1 [Example 146, [(R)-3-(3-Fluoro-5-[1,2,3]triazol-2-yl-benzyl)-morpholin-4-yl]-(4-methyl-2-[1,2,3]triazol-2-yl-phenyl)-methanone] |  | 282 nM | 40000 nM | 3 nM
Cc1ccc(C(=O)N2CCOC[C@H]2Cc2cc(-c3cccnn3)ccc2F)c(-n2nccn2)c1 [Example 166, [(R)-3-(2-Fluoro-5-pyridazin-3-yl-benzyl)-morpholin-4-yl]-(4-methyl-2-[1,2,3]triazol-2-yl-phenyl)-methanone] | 13 nM | 1400 nM | 19000 nM | 
Cc1ccc(C(=O)N2CCOC[C@H]2Cc2cc(-n3nccn3)ccc2Cl)c(-n2nccn2)c1C [Example 169, [(R)-3-(2-Chloro-5-[1,2,3]triazol-2-yl-benzyl)-morpholin-4-yl]-(3,4-dimethyl-2-[1,2,3]triazol-2-yl-phenyl)-methanone] | 5 nM | 2440 nM | 29000 nM | 
O=C(c1ccc(Cl)cc1-n1nccn1)N1CCOC[C@H]1Cc1cc(-n2nccn2)ccc1Cl [Example 170, [(R)-3-(2-Chloro-5-[1,2,3]triazol-2-yl-benzyl)-morpholin-4-yl]-(4-chloro-2-[1,2,3]triazol-2-yl-phenyl)-methanone] | 7 nM | 451 nM | 9800 nM | 
O=C(c1cccc(Cl)c1-n1nccn1)N1CCOC[C@H]1Cc1cc(-n2nccn2)ccc1Cl [Example 171, [(R)-3-(2-Chloro-5-[1,2,3]triazol-2-yl-benzyl)-morpholin-4-yl]-(3-chloro-2-[1,2,3]triazol-2-yl-phenyl)-methanone] | 10 nM | 675 nM | 13000 nM | 
Cc1ccc(-n2nccn2)c(C(=O)N2CCOC[C@H]2Cc2cc(-c3ncon3)ccc2F)c1 [Example 174, [(R)-3-(2-Fluoro-5-[1,2,4]oxadiazol-3-yl-benzyl)-morpholin-4-yl]-(5-methyl-2-[1,2,3]triazol-2-yl-phenyl)-methanone] | 8 nM | 642 nM | 50000 nM | 
Cc1ccc(C(=O)N2CCOC[C@H]2Cc2cc(-c3ncon3)ccc2F)c(-n2nccn2)c1 [Example 175, [(R)-3-(2-Fluoro-5-[1,2,4]oxadiazol-3-yl-benzyl)-morpholin-4-yl]-(4-methyl-2-[1,2,3]triazol-2-yl-phenyl)-methanone] | 3 nM | 359 nM | 35000 nM | 
O=C(c1cc(Cl)ccc1-n1nccn1)N1CCOC[C@H]1Cc1cc(-c2ncon2)ccc1F [Example 176, (5-Chloro-2-[1,2,3]triazol-2-yl-phenyl)-[(R)-3-(2-fluoro-5-[1,2,4]oxadiazol-3-yl-benzyl)-morpholin-4-yl]-methanone] | 11 nM | 240 nM | 22000 nM | 
Cc1cc(C(=O)N2CCOC[C@H]2Cc2cc(-c3ncon3)ccc2F)c(-n2nccn2)cc1C [Example 179, (4,5-Dimethyl-2-[1,2,3]triazol-2-yl-phenyl)-[(R)-3-(2-fluoro-5-[1,2,4]oxadiazol-3-yl-benzyl)-morpholin-4-yl]-methanone] | 2 nM | 34 nM | 29000 nM | 
